Data on four compounds can be found in publication PMC9027599, “Secondary Metabolites in Basil, Bio-Insecticide, Inhibition Effect, and In Silico Molecular Docking against Proteolytic Enzymes of the Red Palm Weevil (Rhynchophorus ferrugineus)” (Plants, 2022).

The test system of test [1] is proteases from the fourth larval instars of R. ferrugineus's midgut. The test is described as follows: Specific protease inhibitors on midgut proteases (in vitro, Figure S2). The conditions noted are these: purified proteases of fourth larval instar midgut. Format: biochemical, Rhynchophorus ferrugineus. On the procedure:
The activity of cysteine proteinase was determined in the fourth midgut instar larval homogenate of R. ferrugineus using the substrate Z-Phe-Arg-MNA [1]. Ten larvae were carefully removed, dissected, and rinsed repeatedly with NaCl solution (0.9% (w/v). The midgut instar was homogenized in protease assay buffer (500 µL) [5 mM DTT, 50 mM HEPS (N-2-Hydroxyethyl piperazin-N’-2-ethanesulfonic acid), pH 8.0, and 0.1 percent Triton X-100]. The reaction mixture was centrifuged for 30 min at 5000 rpm (Sigma 3k30 cooling centrifuge). The supernatant was utilized to determine the overall activity of proteolytic enzymes and the protein content. The supernatant (10 µL) was incubated for 30 min at 37 °C, and the volume was adjusted to 60 µL using assay buffer (pH 8) before adding 100 µL of substrate (0.5 mM). Prior to adding the substrate, 10 µL enzyme samples were pre-incubated with iodoacetic acid for 10 min. After 60 min at 37 °C of mixture incubation, the reaction was halted with the addition of 1.5 mL mersalyl (5 mM), 0.02 mg/mL fast garnet reactive solution, and 2% Tween 20. The reaction was centrifuged (at 5000 rpm, 6 min), then the absorbance was determined (at 520 nm). The activity of cysteine proteinase was measured using an ELISA quick plate reader at the OD520/60 min/mg of midgut protein. As a blank, a test mixture devoid of enzyme was used. […] The fourth homogenates of midgut larval were produced as reported before in the experiment for determining enzyme activity. […]
To learn more about the proteases found in homogenate preparations of R. ferrugineus fourth midgut larval instars, inhibitors from many different types of mechanisms were used. […] The absorbance of the enzymes was determined using an ELISA plate quick reader at various wavelengths. The percentage activity of the control enzyme for each inhibitor was evaluated for each enzyme. Protease activity was assayed in vivo in the R. ferrugineus fourth midgut larval instars, which were treated with 1, 10, 50, 100, 500, 1000, and 5000 mg/L of extracts or compounds, measured as described above. […]

The subject of test [2] is cysteine protease. The test is described as follows: Cysteine protease activity of midgut from larvae treated 24 h (in vivo). Details: species or system Rhynchophorus ferrugineus. The following applies: midgut of fourth instar larvae treated for 24 h. On the procedure:
The activity of cysteine proteinase was determined in the fourth midgut instar larval homogenate of R. ferrugineus using the substrate Z-Phe-Arg-MNA [1]. […] The reaction was centrifuged (at 5000 rpm, 6 min), then the absorbance was determined (at 520 nm). The activity of cysteine proteinase was measured using an ELISA quick plate reader at the OD520/60 min/mg of midgut protein. […]
As a control, an assay combination devoid of inhibitors was utilized. The absorbance of the enzymes was determined using an ELISA plate quick reader at various wavelengths. The percentage activity of the control enzyme for each inhibitor was evaluated for each enzyme. Protease activity was assayed in vivo in the R. ferrugineus fourth midgut larval instars, which were treated with 1, 10, 50, 100, 500, 1000, and 5000 mg/L of extracts or compounds, measured as described above. […]

Test [3] addresses cysteine protease. Put plainly: Cysteine proteinase activity, Z-Phe-Arg-MNA (in vitro). The format is biochemical, Rhynchophorus ferrugineus. The following applies: fourth instar larvae midgut homogenate. On the procedure: The activity of cysteine proteinase was determined in the fourth midgut instar larval homogenate of R. ferrugineus using the substrate Z-Phe-Arg-MNA [1]. Ten larvae were carefully removed, dissected, and rinsed repeatedly with NaCl solution (0.9% (w/v). The midgut instar was homogenized in protease assay buffer (500 µL) [5 mM DTT, 50 mM HEPS (N-2-Hydroxyethyl piperazin-N’-2-ethanesulfonic acid), pH 8.0, and 0.1 percent Triton X-100]. The reaction mixture was centrifuged for 30 min at 5000 rpm (Sigma 3k30 cooling centrifuge). The supernatant was utilized to determine the overall activity of proteolytic enzymes and the protein content. The supernatant (10 µL) was incubated for 30 min at 37 °C, and the volume was adjusted to 60 µL using assay buffer (pH 8) before adding 100 µL of substrate (0.5 mM). Prior to adding the substrate, 10 µL enzyme samples were pre-incubated with iodoacetic acid for 10 min. After 60 min at 37 °C of mixture incubation, the reaction was halted with the addition of 1.5 mL mersalyl (5 mM), 0.02 mg/mL fast garnet reactive solution, and 2% Tween 20. The reaction was centrifuged (at 5000 rpm, 6 min), then the absorbance was determined (at 520 nm). The activity of cysteine proteinase was measured using an ELISA quick plate reader at the OD520/60 min/mg of midgut protein. As a blank, a test mixture devoid of enzyme was used. […] The fourth homogenates of midgut larval were produced as reported before in the experiment for determining enzyme activity. As previously disclosed, the inhibitory experiment was performed using a microplate assay. A series of inhibitor concentrations was created to determine the inhibitor’s maximal inhibitory effect. Leupeptin concentrations of 0.01, 0.05, 0.1, and 1.0 mM, PMSF concentrations of 0.1, 1.0, 10, and 50 mM, TLCK and TPCK concentrations of 0.01, 0.05, 0.1, 1, 50, and 100 mM, EDTA concentrations of 0.1, 1, 10, 50, and 100 mM, and iodoacetic acid concentrations of 0.01, 0.05, 0.1, and 1 mM.
As a control, an assay combination devoid of inhibitors was utilized. The absorbance of the enzymes was determined using an ELISA plate quick reader at various wavelengths. The percentage activity of the control enzyme for each inhibitor was evaluated for each enzyme. Protease activity was assayed in vivo in the R. ferrugineus fourth midgut larval instars, which were treated with 1, 10, 50, 100, 500, 1000, and 5000 mg/L of extracts or compounds, measured as described above. Larvae were exposed for 24 h to leaf discs treated with extract and compounds.

Test [4] concerns trypsin-like serine proteinase. The test is described as follows: Trypsin-like activity of midgut from larvae treated 24 h (in vivo). Set-up: species or system Rhynchophorus ferrugineus. The following applies: midgut of fourth instar larvae treated for 24 h. On the procedure: (§1) The midguts were homogenized in the assay buffer (100 mM Tris-HCl, pH 8.1) and centrifuged for 30 min at 8000 rpm (Sigma 3K 30, rotors No. 12158). […] […] (100 mg/mL in DMF), BAρNA (100 mg/mL in DMSO), and […] (100 mg/mL in DMF) stock substrates were diluted in the assay buffer to 1 mg/mL, and substrate volume was 50 μL. […] The activity was quantified using an ELISA plate reader at a wavelength of 405 nm. As an empty well, an assay combination containing a denaturation enzyme was utilized instead of an active enzyme. […] To learn more about the proteases found in homogenate preparations of R. ferrugineus fourth midgut larval instars, inhibitors from many different types of mechanisms were used. […] As a control, an assay combination devoid of inhibitors was utilized. The absorbance of the enzymes was determined using an ELISA plate quick reader at various wavelengths. The percentage activity of the control enzyme for each inhibitor was evaluated for each enzyme. […] Larvae were exposed for 24 h to leaf discs treated with extract and compounds.

Test [5] has as its system total proteases. Put plainly: Total protease activity of midgut from larvae treated 24 h (in vivo). The conditions noted are these: midgut of fourth instar larvae treated for 24 h. Set-up: species or system Rhynchophorus ferrugineus. The method, then: (§2) The Lowry technique was used to determine the protein concentrations. Total proteolytic activity was determined in the fourth midgut instar larval (lab strain) homogenate of R. ferrugineus with azocasein in accordance with […] et al. […] [70]. […] Using a Sigma 3k30 cooling centrifuge, reserve homogenates prepared in a previous stage were spun at 5000 rpm for 30 min. Estimates of protein content and total proteolytic enzyme activity were made using the supernatants. The supernatant (10 μL) was incubated at 37 °C for 20 min, and the volume was adjusted to 60 μL using an assay buffer (pH 8), before adding azocasien (200 μL, 2% (w/v)). […] Following that, to activate the reaction, the substrate was introduced 20 min for Leupeptin, so the reaction was halted after 180 min at 37 °C with 300 μL of cool tri-chloroacetic acid (TCA) (10% (v/v). The mixture was centrifuged for 20 min at 5000 rpm (Sigma 3k30 cooling centrifuge). […] To learn more about the proteases found in homogenate preparations of R. ferrugineus fourth midgut larval instars, inhibitors from many different types of mechanisms were used. […] As a control, an assay combination devoid of inhibitors was utilized. The absorbance of the enzymes was determined using an ELISA plate quick reader at various wavelengths. The percentage activity of the control enzyme for each inhibitor was evaluated for each enzyme. […] Larvae were exposed for 24 h to leaf discs treated with extract and compounds.

In test [6] the target is metalloprotease. Put plainly: Metalloproteinase activity, azocasein (in vitro). The format is biochemical, Rhynchophorus ferrugineus. The following applies: fourth instar larvae midgut homogenate. The method, then:
(§3) A substrate azocasein assessed the metalloproteinases activity in the fourth midgut instar larval homogenate. Ten larvae were carefully removed, dissected, and rinsed repeatedly with NaCl solution (0.9% (w/v). […] After homogenization, the homogenates were centrifuged at 5000 rpm (for 30 min) using a Sigma centrifuge 3k30, and the supernatant was utilized to determine enzyme activity and protein content. The supernatant per experiment (10 µL) was incubated for 20 min at 37 °C, and the volume was adjusted to 60 µL using assay buffer pH 8 before adding azocasein (200 µL, 2% (w/v)). In all instances, 10 µL enzyme samples were incubated for 10 min (except EDTA with 20 min), and EDTA was used as a blocker of metalloproteinase activity before being added to the specific substrate. The reaction was interrupted with 300 µL of trichloroacetic acid (TCA cold, 10% (v/v) and continued at 37 °C for 180 min. The reaction mixture was then centrifuged at 5000 rpm for 20 min (Sigma centrifuge 3k30), sodium hydroxide (10 µL of 10 N) was incorporated into the supernatant, then absorbance was determined using an ELISA plate reader at 450 nm. As a blank, an assay mixture devoid of the enzyme was devoted, the specific activity was determined using the OD450 mg^−1 protein min^−1 value, and a blank solution sample devoid of enzyme solution was determined. To learn more about the proteases found in homogenate preparations of R. ferrugineus fourth midgut larval instars, inhibitors from many different types of mechanisms were used. […] As a control, an assay combination devoid of inhibitors was utilized. The absorbance of the enzymes was determined using an ELISA plate quick reader at various wavelengths. The percentage activity of the control enzyme for each inhibitor was evaluated for each enzyme. […] Larvae were exposed for 24 h to leaf discs treated with extract and compounds.

Test [7] has as its system total proteases. The test is described as follows: Total proteolytic activity of fourth instar midgut homogenate, azocasein (in vitro). Format: biochemical, Rhynchophorus ferrugineus. The conditions noted are these: fourth instar larvae midgut homogenate. On the procedure: as §2
For test [8], the system named is metalloprotease. The test is described as follows: Metalloprotease activity of midgut from larvae treated 24 h (in vivo). Set-up: species or system Rhynchophorus ferrugineus. The following applies: midgut of fourth instar larvae treated for 24 h. The method, then:
as §3

The target in test [9] is trypsin-like serine proteinase. The test is described as follows: Serine proteinase microplate assay, BApNA (in vitro). The format is biochemical, Rhynchophorus ferrugineus. The following applies: fourth instar larvae midgut homogenate. On the procedure: as §1, with “The specific activities of serine proteinase were determined using a rapid quick microplate assay with substrates in reaction mixtures (150 μL) including a serine protease assay buffer, according to […] et al. and Olga et al. with modifications. The midguts” for “The midguts”

As to `Cc1ccc(S(=O)(=O)N[C@@H](CCCCN)C(=O)CCl)cc1` [TLCK], in [1], the “effect of specific inhibitor on midgut proteases” value (“effect of specific inhibitor” for short) is on record as “dramatically suppressed”.

Consider `Cc1ccc(S(=O)(=O)N[C@@H](Cc2ccccc2)C(=O)CCl)cc1` [TPCK], for which the “effect of specific inhibitor” value in test [1] is given as “dramatically suppressed”.

With `C[C@H]1[C@H](C)CC[C@]2(C(=O)O)CC[C@]3(C)C(=CC[C@@H]4[C@@]5(C)CC[C@H](O)C(C)(C)[C@@H]5CC[C@]43C)[C@H]12` [Ursolic acid], the “IC50 against cysteine protease (in vivo)” value in the test with cysteine protease [2] was 685.2 µg/mL. On cysteine protease [3], the “IC50 against cysteine protease (in vitro)” value was 58.2 µg/mL. Moreover, the “IC50 against trypsin-like serine proteinase (in vivo)” value in [4] is listed as 235.1 µg/mL. For the same compound, the “IC50 against total proteases (in vivo)” value with total proteases [5] was 279.5 µg/mL. On metalloprotease [6], the “IC50 against metalloprotease (in vitro)” value turned out to be 119.4 µg/mL. Further, the “IC50 against total proteases (in vitro)” value in the test with total proteases [7] amounted to 67.2 µg/mL. In the test on metalloprotease [8], the “IC50 against metalloprotease (in vivo)” value worked out at 548.3 µg/mL. The “IC50 against trypsin-like serine proteinase (in vitro)” value in test [9] stood at 57.4 µg/mL.

For `O=C(O)CI` [iodoacetic acid], in test [1], the “effect of specific inhibitor” value was “dramatically suppressed”.
